According to patent US10226458B2, “Pharmaceutical compositions comprising sorbitan esters” (Alkermes Pharma Ireland Limited, priority 2011, dated 2019):
Blank lines part the entries; values can stand above or below the compound they belong to.

Assays:
[1] = Solubility of Compound A-7 in vehicles containing varying amounts of sorbitan monolaurate; type: physicochemical; conditions: 10 mM phosphate buffer, 0.2% polysorbate 20, saline, 0%-0.75% sorbitan laurate, 25° C., HPLC (FIG. 9)
Protocol: • a. Injection vehicles comprised of ca. 10 mM phosphate buffer, 0.2% polysorbate 20, saline and various amount of sorbitan laurate (0%-0.75%) were prepared. The injection vehicles were stirred for 4 hours before preparing suspension preparation. • b. Approximately 1.25±0.05 g of Compound A-7 were added to 15 mL injection vehicles in a 20-mL glass scintillation vial with a ⅞″× 5/16″ stirring bar. The suspension was vigorously stirred on Chemglass CG-1990-T-50 hotplate at 25° C. which was controlled using a thermal sensor. • c. At each time point, a total of 3 mL of -mixed suspension were transferred into two 1.5-mL centrifuge tubes using a plastic pipette. The tubes were centrifuged at 14,000 rpm for 4 minutes. The supernatant of both tubes were combined and centrifuged again at 14,000 rpm for 4 minutes. The HPLC sample was then prepared with final (2nd) centrifuged supernatant by diluting 0.4 mL supernatant with 0.6 mL THF. • d. Concentration of dissolved Compound A-7 was determined using HPLC.

[2] = Previous experiments on wetting of Compound A-7 solids load by polysorbate 20; type: physicochemical; conditions: 25.6 wt % solids load of Compound A-7 bulk recrystallized drug substance
rats = experiment: Subcutaneous injection site reaction model; conditions: single SC injection, Day 10, formulations comprising sorbitan laurate compared to formulations with no sorbitan laurate (FIGS. 8A, 8B)
[3] = cited from earlier work
[4] = Wettability characterization: free energy of immersion and spreading coefficient of Compound A-7 in injection vehicles; type: physicochemical; conditions: recrystallized Compound A-7 against the named injection vehicle formulation; predicted from vehicle surface tension and solid surface energy
Description: A surface energy measurement methodology was developed that would allow for facile screening of formulation candidates with minimal use of drug substance. These experiments utilize the surface tension of the injection vehicle and surface energy of the solid to predict the immersional free energy and spreading coefficient between the liquid and the solid.
A force-balance tensiometer (Attension Sigma® 701) with a platinum Wilhelmy plate was used to measure the surface energy (tension) of the vehicle of interest. This was done using a 30 mL sample of the vehicle of interest and taking 8 individual surface tension measurements. The first 3 measurements were discarded as being non-representative of equilibrium conditions, and the remaining measurements were averaged to give the surface tension value. […] To then obtain the polar and non-polar (dispersive) components of the surface tension, a polytetrafluoroethylene (PTFE) contact angle standard (Rame-Hart) was affixed to the tensiometer and the dynamic contact angle was measured. […]
With the total surface tension of the liquid, and the contact angle of the liquid on a non-polar surface with known surface energy attributes, the polar and dispersive components of the surface tension were calculated. […]

Compound: CCCCCCCCCCCC(=O)OCN1C(=O)CCc2ccc(OCCCCN3CCN(c4cccc(Cl)c4Cl)CC3)cc21 [Compound A-7, (7-(4-(4-(2,3-dichlorophenyl)piperazin-1-yl)butoxy)-2-oxo-3,4-dihydroquinolin-1(2H)-yl)methyl dodecanoate]
solubility (concentration of dissolved Compound A-7) [1]: decreases solubility up to 0.5 wt % SML with solubility increasing again above 0.5 wt. %
polysorbate 20 required to adequately wet the drug substance [2]: at least 0.1%

Compound: O=C1CCc2ccc(OCCCCN3CCN(c4cccc(Cl)c4Cl)CC3)cc2N1 [aripiprazole (free base), 7-{4-[4-(2,3-dichlorophenyl)-1-piperazinyl]butoxy}-3,4-dihydro-2(1H)-quinolinone]
injection site reaction (weight of excised ISR) (rats): significant reduction in injection site reaction
tissue irritation ([3]; following IM and SC injection): unacceptable (moderate to severe) tissue irritation
pharmacokinetic profile ([3]; long-acting injections): prolonged pharmacokinetic profile

Compound: Cc1cc2c(s1)Nc1ccccc1N=C2N1CCN(C)CC1.O.O=C(O)c1cc2ccccc2c(Cc2c(O)c(C(=O)O)cc3ccccc23)c1O [olanzapine pamoate]
injection site reaction (weight of excised ISR) (rats): significant reduction in injection site reaction

FREE ENERGY OF IMMERSION [4]: 10 mN/m
SPREADING COEFFICIENT [4]: −83.3 mN/m
Compound: Water
